Laboratory results reported in US20230271938A1, “BENZIMIDAZOLES FOR USE IN THE TREATMENT OF CANCER AND INFLAMMATORY DISEASES” (Capella Therapeutics, Inc., priority 2015, published 2023).

Key:
ITK = biological target: T1, ITK (Homo sapiens, UniProt Q08881); assay: Inhibition of ITK kinase; type: biochemical; conditions: 1% DMSO
T1 sequence (Q08881 1-620): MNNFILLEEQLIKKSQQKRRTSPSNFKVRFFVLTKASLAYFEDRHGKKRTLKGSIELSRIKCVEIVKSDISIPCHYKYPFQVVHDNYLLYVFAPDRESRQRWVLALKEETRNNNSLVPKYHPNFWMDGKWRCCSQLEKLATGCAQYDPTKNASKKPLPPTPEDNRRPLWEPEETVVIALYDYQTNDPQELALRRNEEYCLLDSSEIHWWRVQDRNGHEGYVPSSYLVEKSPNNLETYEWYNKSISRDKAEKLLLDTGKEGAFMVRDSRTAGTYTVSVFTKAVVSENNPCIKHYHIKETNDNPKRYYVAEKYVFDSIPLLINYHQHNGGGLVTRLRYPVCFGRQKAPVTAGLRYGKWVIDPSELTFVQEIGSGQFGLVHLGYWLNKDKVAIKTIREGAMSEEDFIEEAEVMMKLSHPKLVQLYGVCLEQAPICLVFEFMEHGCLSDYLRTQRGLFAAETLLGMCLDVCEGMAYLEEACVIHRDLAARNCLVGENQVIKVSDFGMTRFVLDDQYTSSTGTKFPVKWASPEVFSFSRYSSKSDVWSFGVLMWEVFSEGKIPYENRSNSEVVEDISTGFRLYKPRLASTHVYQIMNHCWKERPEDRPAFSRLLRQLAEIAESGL
From the text: (§1) The Z′-LYTE® biochemical assay is a fluorescence-based, coupled-enzyme assay based on the differential sensitivity of phosphorylated and non-phosphorylated peptides to proteolytic cleavage. A peptide substrate for a kinase is labeled with two fluorophores, one at each end, to form a FRET pair.
In the primary reaction, the kinase transfers the gamma-phosphate of ATP to a single tyrosine, serine, or threonine residue in the synthetic FRET-peptide substrate. In the secondary reaction, a site-specific protease recognizes and cleaves non-phosphorylated FRET-peptides. […] An inhibitory activity of a compound is thus determined from its effect on the cleavage of the synthetic FRET-peptide substrate.
(§2) Inhibition of BMX, BTK, ITK, and TXK kinases by a test compound is determined in 50 mM HEPES, pH 7.5, 0.01% BRIJ-35, 10 mM MgCl2, and 1 mM EGTA in the presence of 1% DMSO by volume.
Binding of an ALEXA FLUOR® conjugate or “tracer” to a kinase is detected by addition of a Eu-labeled anti-tag antibody. […] An inhibitory activity of a compound is thus determined from the extent of the FRET signal loss. Inhibition of ITK and TEC kinases by a test compound is determined in the presence of 1% DMSO.
(§3) Inhibition of BMX, BTK, PIK3C-D, ITK, TEC, and TXK kinases by compound A2 was measured using one of the assays described in Examples 2A and 3A.

TXK = biological target: T2, TXK (Homo sapiens, UniProt P42681); assay: Inhibition of TXK kinase; type: biochemical; conditions: 1% DMSO
T2 sequence (P42681 1-527): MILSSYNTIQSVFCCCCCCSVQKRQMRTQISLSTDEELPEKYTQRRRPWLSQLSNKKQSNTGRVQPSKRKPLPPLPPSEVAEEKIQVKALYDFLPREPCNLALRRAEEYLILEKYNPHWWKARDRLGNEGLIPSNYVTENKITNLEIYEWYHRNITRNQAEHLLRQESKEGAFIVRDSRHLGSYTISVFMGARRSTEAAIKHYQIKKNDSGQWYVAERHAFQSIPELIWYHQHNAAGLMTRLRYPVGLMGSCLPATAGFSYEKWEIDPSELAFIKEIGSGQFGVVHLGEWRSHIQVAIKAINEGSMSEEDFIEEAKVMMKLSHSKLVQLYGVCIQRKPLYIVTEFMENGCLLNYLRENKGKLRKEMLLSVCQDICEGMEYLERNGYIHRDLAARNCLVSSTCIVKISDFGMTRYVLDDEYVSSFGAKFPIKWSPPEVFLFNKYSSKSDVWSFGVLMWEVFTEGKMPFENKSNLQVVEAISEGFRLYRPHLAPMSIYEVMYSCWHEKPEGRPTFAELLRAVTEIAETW
From the text: as §1
In the primary reaction, the kinase transfers the gamma-phosphate of ATP to a single tyrosine, serine, or threonine residue in the synthetic FRET-peptide substrate. In the secondary reaction, a site-specific protease recognizes and cleaves non-phosphorylated FRET-peptides. Cleavage disrupts FRET between the donor and acceptor fluorophores on the FRET-peptide, whereas uncleaved, phosphorylated FRET-peptides maintain FRET. An inhibitory activity of a compound is thus determined from its effect on the cleavage of the synthetic FRET-peptide substrate.
as §2, §3

[1] = system: HCC827 human NSCLC adenocarcinoma cells (mutant ERBB1, deletion of E746-A759 in exon 19); assay: Cell proliferation assay, HCC827; type: cell-based
Method: The biological activity of a test compound was determined using cell proliferation assays. The activity against wild-type ERBB 1 was determined using A431 human epidermoid carcinoma cells (ATCC) and human epidermal keratinocytes, neonatal, or HEKn cells (ATCC).
A431 cells were grown in DMEM (Invitrogen) supplemented with 10% FBS (Lonza), 1% penicillin-streptomycin, and 2 mM glutamine (Invitrogen). HEKn cells were grown in EPILIFE® (Invitrogen) supplemented with HKGS (Invitrogen). HCC827 and H1975 were cultured in RPMI1640 supplemented with 10% FBS (Lonza), 1% penicillin-streptomycin, and 2 mM glutamine (Invitrogen). Cells were maintained and propagated at 37° C. and 5% CO2 in a humidified cell culture incubator. Aliquots of cells from early passages were preserved for liquid nitrogen storage. Frozen vials of cells were thawed at 37° C. water bath. Cells were spun to remove freezing medium. The newly revived frozen cells were adapted in culture for 10 days before used for compound testing. Cells used in the assay were less than 20 subculture passages or 3 months in culture.
The test compounds were dissolved in dimethylsulfoxide (DMSO) and stored at -20° C. before testing. […] The cells were placed in a culture incubator overnight. Next day, test compounds in DMSO were added to the cells and placed back in the culture incubator for 72 hrs. In the meantime, the cell numbers at time zero of the compound treatment (T0) was measured by ENERCOUNT® (Codex BioSolutions). At the end of the compound treatment, the cell numbers were again measured by EnerCount as T72 values. The untreated controls (Ctrl) were cell numbers recorded from the 0.1% DMSO treatment. The percent growth inhibition by the test compound was calculated by the formula: (1- (T72-T0)/(Ctrl-T0)) x 100.
The results are summarized in Tables 1 and 2, wherein A represents a value no greater than 500 nM, B represents a value greater than 500 nM but no greater than 1 µM, C represents a value greater than 1 µM but no greater than 5 µM, and D represents a value greater than 5 µM; and wherein A′ represents a ratio of greater than 10, B′ represents a ratio of no greater than 10 but no less than 5, C′ represents a ratio of no greater than 5 but no less than 2, and D′ represents a ratio of no greater than 2.

C=CC(=O)N1CCCC[C@@H](n2c(NC(=O)c3ccnc(C)c3)nc3cccc(OC4CCN(C(C)=O)CC4)c32)C1 [Compound A2, (R)-N-(7-((1-acetylpiperidin-4-yl)oxy)-1-(1-acryloylazepan-3-yl)-1H-benzo[d]imidazol-2-yl)-2-methylisonicotinamide]
IC50 (ITK): ≤ 10 nM | Inhibition (ITK): A (A represents a value no greater than 10 nM or no less than 90% inhibition) | IC50 (TXK): ≤ 10 nM | Inhibition (TXK): A (A represents a value no greater than 10 nM or no less than 90% inhibition) | Ratio (Wild-type ERBB1/Mutant ERBB1) A431/HCC827 ([1]; GI50 ratio A431/HCC827): A′ (A′ represents a ratio of greater than 10) | Ratio (Wild-type ERBB1/Mutant ERBB1) HEKn/HCC827 ([1]; GI50 ratio HEKn/HCC827): A′ (A′ represents a ratio of greater than 10) | GI50 ([1]; Homo sapiens, HCC827 cells, 72 hrs): < 500 nM
